Tested on: astrocytes
Test: Astrocytes by GFAP immunofluorescence
Assay type: in vivo, mouse
Conditions: 0.3 mg/kg every three days
Experimental: Representative images of astrocytes stained for GFAP (red) in the cerebellum, hippocampus and cortex of wt and ASMko mice treated or not with PF-04457845. […] Graphs show mean±SEM GFAP intensity in arbitrary units (n=7, **p<0.01, *p<0.05).
Treatment started at 7 weeks of age and continued for 8 weeks. PF-04457845 was dissolved in 0.9% NaCl and delivered through oral gavage at a dose of 0.3 mg/kg every three days. We chose this dose based on the studies published by Ahn et al., (J Pharm Exp Ther 2011). Control groups received same volume of 0.9% NaCl without PF-04457845.
Brain inflammation was determined by analysis of glial cells in the cerebellum, hippocampus and cortex. The number and morphology of microglia was analyzed by immunofluorescence staining with the marker iba-1 (FIG. 16). […] PF-04457845 treatment had no effect in microglia of wt mice. The amount of astrocytes was analyzed by immunofluorescence with the marker GFAP (FIG. 17). […] PF-04457845 treatment had no effect in astrocytes of wt mice (FIG. 17).

SMILES: O=C(Nc1cccnn1)N1CCC(=Cc2cccc(Oc3ccc(C(F)(F)F)cn3)c2)CC1 [PF-04457845]
- GFAP intensity in cerebellum, hippocampus and cortex (ASMko mice): reduced GFAP intensity in all areas but the effect was significant only in the cerebellum
- astrocytes (GFAP) (wt mice): no effect
